The values below come from patent US20100048594A1, “USE OF CYTOHESIN INHIBITORS FOR CHEMICALLY INDUCING LONGEVITY” (RHEINISCHE FRIEDRICH-WILHELMS UNIVERSITAT, priority 2006, published 2010).

For one assay, the system named is 1nR (insulin receptor). Description: Expression of insulin-repressed gene 1nR (insulin receptor) in fed Drosophila larvae (real-time PCR). The class given is in vivo. As to conditions: 10 mg compound per 1 g brewer's yeast, 3 days. The procedure:
(§1) Three groups of 100 Drosophila larvae received 10 mg of the compound according to formula (9) mixed with 1 g autoclaved and pulverized brewer's yeast (Brewferm), while three control groups of 100 animals each received the uncut brewer's yeast. This food was administered on water-impregnated filters (Macherey-Nagel) for 3 days at 25° C.
(§2) In each case, more than 10 animals of the group were washed thoroughly with water, placed in lysate buffer (NucleoSpin RNA II kit, Macherey & Nagel), and homogenized for 1 minute at maximum speed (Ultra-Turrax T25basic). Total RNA was isolated using the NucleoSpin RNA II Kit (Macherey & Nagel, including DNase I-treatment on the column).
(§3) cDNA was produced from each 500 ng total RNA using the QuantiTect Reverse Transcription Kit (Qiagen), according to the manufacturer's instructions, including DNase I treatment. PCR was performed in batches with a total volume of 25 μl (iQ5 Real Time PCR Detection System, BioRad). The batches contained 1 μl of the cDNA batch, in each case 200 nM and 3′- and 5′-primer (Metabion) 12.5 μl 2×iQ5 SYBR Green Supermix (BioRad).
(§4) The PCR program that was used comprised 40 cycles with the following steps: 15 seconds denaturing at 95° C., 30 seconds annealing at 59° C. and 30 seconds extension at 72° C. Evaluation was carried out using the iQ5 Optical System software (Version 1.1.1442.OCR, BioRad). […]
Background: Real-time PCR tracks product formation cycle by cycle.

Another assay concerns 4E-BP. The assay can be described thus: Expression of insulin-repressed gene 4E-BP in fed Drosophila larvae (real-time PCR). Type of assay: in vivo. As to conditions: 10 mg compound per 1 g brewer's yeast, 3 days. As for the experimental part:
as §1, §2, §3, §4

Assay [1] deals with Drosophila eukaryotic initiation factor 4E binding protein (d4EBP, Thor). Description: Transcription rate of insulin target gene d4EBP in insulin-treated Drosophila S2 cells (real-time PCR). Conditions: 100 μM compound, 10 μg/ml human insulin, insulin alone less than 35%. The class given is cell-based. The procedure:
Drosophila Schneider 2 (S2) cells were cultivated in Schneider's Medium (PAN company) with 10% heat-inactivated fetal calf serum (FCS). 2×10^6 cells were drawn into 35 mm vessels at 25° C. to 80% confluence, washed one time in phosphate buffered saline solution (1×PBS, Gibco), and transferred for twelve hours to Schneider's Medium, without FCS. The cells were then preincubated for two hours with 0.5% DMSO containing Schneider's Medium, without FCS, with or without the compound according to formula (9) or formula (25), with the final concentrations of the compounds according to formulas (9) and (25) being 1 μM, 10 μM and 100 μM. This was followed by a four-hour stimulation with 10 μg/ml human insulin (Sigma).
After washing the cells two times with PBS, total RNA was then isolated from the cells using the NucleoSpin RNA II Kit (Macherey & Nagel), according to the manufacturer's instructions. The first strain cDNA synthesis was performed with every 500 ng RNA, using the QuantiTect Reverse Transcription Kit (Qiagen), according to the manufacturer's instructions. […]
The activity of the insulin signaling pathway was determined from the transcription rate of the insulin target gene Drosophila eukaryotic initiation factor 4E binding protein (d4EBP, Thor). […]

With `COc1nc(-c2ccc3c(c2)OCO3)n(-c2ccc(NC(=O)CSc3ccccc3)cc2)n1` [Compound (9)], in the assay on 1nR (insulin receptor), the “expression of insulin-repressed gene 1nR (insulin receptor)” value is recorded as “more than double”. For the same compound, the “expression of insulin-repressed gene 4E-BP” value in the assay with 4E-BP is “more than four times”. For the same compound, in assay [1], the “transcription rate of d4EBP as % of that of the untreated control groups” value is listed as “more than 85%”.
